Our source for the IC50 and Selectivity values is PMC6522941, “Design, synthesis, and anticancer evaluation of novel quinoline derivatives of ursolic acid with hydrazide, oxadiazole, and thiadiazole moieties as potent MEK inhibitors” (Journal of Enzyme Inhibition and Medicinal Chemistry, 2019).

For test [1], the system named is MDA-MB-231 cells. Briefly: MTT cytotoxic assay, MDA-MB-231. Format: cell-based, human. As to conditions: Homo sapiens, MDA-MB-231, 72 h. As to the method: (§1) Human breast cancer cell line (MDA-MB-231), cervical carcinoma cell line (HeLa), the liver cancer cell line (SMMC-7721) and normal hepatocyte cell line (QSG-7701) were maintained in Dulbecco Modified Eagle Medium (DMEM) containing 4.0 mM L-Glutamine and 4500 mg/L Glucose supplemented with 10% (v/v) foetal bovine serum (FBS) and 100 U/mL penicillin/streptomycin at 37 °C in humidified atmosphere of 5% CO2 and 95% air.
(§2) Exponentially growing MDA-MB-231, Hela and SMMC-7721 cell lines were seeded into 96-well plate for 100 μL and treated with different concentrations of the synthetic compounds for 72 h, and then 10 μL of MTT (10 mg/mL) was added and incubation for 3 ∼ 4 h at 37 °C. The generated purple formazan crystals from viable can be dissolved by adding 100 μL DMSO. The plates were swirled gently for 5 min and quantified by measuring the OD of the plates at the wavelength of 540 nm. Each concentration was repeated in three wells and the same experimental condition was provided for all compounds. The results were expressed as IC50 values with standard deviations, which was defined as the concentration at which 50% survival of cells was discerned. Etoposide was co-assayed as positive control.
(§3) The in vitro cytotoxic activity of derivatives 3a–d, 4a–h, 5a–h, and 6a–h were evaluated by MTT assay against human breast cancer cell line (MDA-MB-231), cervical carcinoma cell line (HeLa), hepatocarcinoma cell line (SMMC-7721) and human normal hepatocyte cell line (QSG-7701). The anticancer drug etoposide was co-assayed as the positive control. All tested compounds were dissolved in DMSO and the stock solutions were diluted by DMEM medium before treatment of the cultured cells.
(Tetrazolium assays rely on reduction of a dye to a coloured formazan, in cell work by metabolically active cells.)

The test system of test [2] is HeLa cells. Briefly: MTT cytotoxic assay, HeLa. The format is cell-based. As to conditions: Homo sapiens, 72 h. As to the method: as §1, §2, §3
Test [3] concerns SMMC-7721 cells. Nature of the test: MTT cytotoxic assay, SMMC-7721. The format is cell-based. Conditions: Homo sapiens, 72 h. As to the method: as §1, §2, §3
Test [4] deals with QSG-7701 cells. Nature of the test: MTT cytotoxic assay, normal hepatocyte QSG-7701. Format: cell-based, human. Conditions: for IC50: Homo sapiens, QSG7701, MTT, normal hepatocyte cell line; for Selectivity: IC50 (QSG-7701)/IC50 (HeLa). As to the method:
as §1, §2, §3

Test [5] deals with T1, MEK1 (Homo sapiens, UniProt Q02750).
T1 construct: purchased Carna Biosciences, Kobe, Japan
T1 sequence (Q02750 whole entry): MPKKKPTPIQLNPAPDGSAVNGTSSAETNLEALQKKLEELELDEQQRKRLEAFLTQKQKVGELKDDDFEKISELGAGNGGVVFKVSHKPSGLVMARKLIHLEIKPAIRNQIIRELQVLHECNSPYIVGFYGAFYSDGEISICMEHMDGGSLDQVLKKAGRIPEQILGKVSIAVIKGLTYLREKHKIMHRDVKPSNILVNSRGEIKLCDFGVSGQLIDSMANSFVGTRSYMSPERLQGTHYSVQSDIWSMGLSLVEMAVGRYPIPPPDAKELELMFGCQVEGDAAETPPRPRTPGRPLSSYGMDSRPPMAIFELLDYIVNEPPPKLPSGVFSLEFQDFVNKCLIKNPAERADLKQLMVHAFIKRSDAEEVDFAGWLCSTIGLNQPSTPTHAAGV
Briefly: In vitro MEK1 kinase assay (ADP-Glo). The format is biochemical. As to conditions: recombinant GST-MEK1, GST-ERK2 (inactive) substrate, 10 μM ATP. The method, then:
An in vitro kinase assay of MEK1 was performed using ADP-Glo kinase assay (Promega, Madison, WI, USA) according to the manufacturer’s protocol. […] Reactions were stopped by adding 5 μL of ADP-Glo reagent to each well. After incubating at 22 °C for 40 min, 10 μL of the kinase detection reagent was added and the plates were incubated for another 30 min at 22 °C in the dark. The reaction mixture was analysed by EnSpire (PerkinElmer, Waltham, MA, USA).
The Raf/MEK/ERK pathway is the downstream of Ras activation, and the abnormal expression or phosphorylation of the associated proteins is essential for cancer cell proliferation. In this pathway, MEK kinase is an important anticancer target because of its key roles in regulating the cancer cell apoptosis and oncogenic transformation[51]^,[52]. Among MEK proteins, MEK1 and MEK2 are known as substrate-specific kinases which phosphorylate their downstream kinase ERK1/2.

By IC50 is commonly meant the concentration at which inhibition is half-maximal. As to `CCCCc1nnc([C@]23CC[C@@H](C)[C@H](C)C2C2=CCC4[C@@]5(C)Cc6cc7cc(OC)ccc7nc6C(C)(C)C5CC[C@@]4(C)[C@]2(C)CC3)s1` (some centres unmarked) [Compound 6f, N-2-[5′-methoxy-ursa-12-en-(2,3)-quinoline-28-oyl]-5-butyl-1,3,4-thiadiazole], the IC50 in test [1], in test [2] and in test [3] was greater than 50 µM each time.
Consider `Cc1nnc([C@]23CC[C@@H](C)[C@H](C)C2C2=CCC4[C@@]5(C)Cc6cc7cc(F)ccc7nc6C(C)(C)C5CC[C@@]4(C)[C@]2(C)CC3)s1` (some centres unmarked) [Compound 6c], for which the concentration for half-maximal inhibition (IC50) in test [1] was 31.6 ± 2.7 µM; in test [4], greater than 50 µM; in test [2], greater than 50 µM; in test [3] it was greater than 50 µM. Also, the Selectivity in test [4] worked out at 2.8.
Turning to `CCCCc1nnc([C@]23CC[C@@H](C)[C@H](C)C2C2=CCC4[C@@]5(C)Cc6cc7cc(Cl)ccc7nc6C(C)(C)C5CC[C@@]4(C)[C@]2(C)CC3)s1` (some centres unmarked) [Compound 6h, N-2-[5′-chloro-ursa-12-en-(2,3)-quinoline-28-oyl]-5-butyl-1,3,4-thiadiazole], the IC50 in test [1], in test [2] and in test [3] was greater than 50 µM each time.
For the molecule `CCCCc1nnc([C@]23CC[C@@H](C)[C@H](C)C2C2=CCC4[C@@]5(C)Cc6cc7cc(OC)ccc7nc6C(C)(C)C5CC[C@@]4(C)[C@]2(C)CC3)o1` (some centres unmarked) [Compound 5f, N-[5′-methoxy-ursa-12-en-(2,3)-quinoline-28-oyl]-5-butyl-1,3,4-oxadiazole], the values for the IC50 in test [1], in test [2] and in test [3] were greater than 50 µM, 30.9 ± 1.14 µM and greater than 50 µM, respectively.
Take `COc1cc([C@@H]2c3cc4c(cc3[C@@H](O[C@@H]3O[C@@H]5CO[C@@H](C)O[C@H]5[C@H](O)[C@H]3O)[C@H]3COC(=O)[C@H]23)OCO4)cc(OC)c1O` [Etoposide, reference compound]: the IC50 in test [1] was found to be 5.26 ± 1.21 µM; in test [4], 28.8 ± 3.28 µM; in test [2], 2.98 ± 0.42 µM; in test [3] it was 3.48 ± 0.35 µM. In test [4], this molecule had a Selectivity of 9.6.
On to `CCCCc1nnc([C@]23CC[C@@H](C)[C@H](C)C2C2=CCC4[C@@]5(C)Cc6cc7ccccc7nc6C(C)(C)C5CC[C@@]4(C)[C@]2(C)CC3)s1` (some centres unmarked) [Compound 6e, N-2-[ursa-12-en-(2,3)-quinoline-28-oyl]-5-butyl-1,3,4-thiadiazole], for which the IC50 in test [1], in test [2] and in test [3] was greater than 50 µM each time.
For `CCCCC(=O)NNC(=O)[C@]12CC[C@@H](C)[C@H](C)C1C1=CCC3[C@@]4(C)Cc5cc6cc(F)ccc6nc5C(C)(C)C4CC[C@@]3(C)[C@]1(C)CC2` (some centres unmarked) [Compound 4g, N-[5′-fluoro-ursa-12-en-(2,3)-quinoline-28-oyl]-pentanehydrazide], the IC50 in test [1], in test [2] and in test [3] was greater than 50 µM in each case.
On to `CCCCC(=O)NNC(=O)[C@]12CC[C@@H](C)[C@H](C)C1C1=CCC3[C@@]4(C)Cc5cc6cc(Cl)ccc6nc5C(C)(C)C4CC[C@@]3(C)[C@]1(C)CC2` (some centres unmarked) [Compound 4h, N-[5′-chloro-ursa-12-en-(2,3)-quinoline-28-oyl]-pentanehydrazide], for which the IC50 in test [1] is greater than 50 µM; in test [2], 46 ± 0.91 µM; in test [3], greater than 50 µM.
In the case of `C[C@H]1[C@H](C)CC[C@]2(C(=O)O)CC[C@]3(C)C(=CC[C@@H]4[C@@]5(C)CC[C@H](O)C(C)(C)[C@@H]5CC[C@]43C)[C@H]12` [Compound 1, Ursolic acid], the IC50 in test [1], in test [2] and in test [3] was greater than 50 µM each time.
As for `Cc1nnc([C@]23CC[C@@H](C)[C@H](C)C2C2=CCC4[C@@]5(C)Cc6cc7ccccc7nc6C(C)(C)C5CC[C@@]4(C)[C@]2(C)CC3)s1` (some centres unmarked) [Compound 6a], the IC50 was 18.8 ± 1.38 µM in test [1], greater than 50 µM in test [4], 27.3 ± 1.91 µM in test [2] and greater than 50 µM in test [3]. This molecule displayed a Selectivity in test [4] of 4.8.
With `Cc1nnc([C@]23CC[C@@H](C)[C@H](C)C2C2=CCC4[C@@]5(C)Cc6cc7cc(Cl)ccc7nc6C(C)(C)C5CC[C@@]4(C)[C@]2(C)CC3)o1` (some centres unmarked) [Compound 5d, N-[5′-chloro-ursa-12-en-(2,3)-quinoline-28-oyl]-5-methyl-1,3,4-oxadiazole], the concentration for half-maximal inhibition (IC50) in test [1] is 11 ± 0.98 µM; in test [4] it was greater than 50 µM; in test [5] it was greater than 50 µM; in test [3] it was greater than 50 µM. The same molecule showed a Selectivity in test [4] of 20.1.
As to `CCCCC(=O)NNC(=O)[C@]12CC[C@@H](C)[C@H](C)C1C1=CCC3[C@@]4(C)Cc5cc6cc(OC)ccc6nc5C(C)(C)C4CC[C@@]3(C)[C@]1(C)CC2` (some centres unmarked) [Compound 4f, N-[5′-methoxy-ursa-12-en-(2,3)-quinoline-28-oyl]-pentanehydrazide], the IC50 in test [1], in test [2] and in test [3] was greater than 50 µM in each case.
Regarding `CCCCC(=O)NNC(=O)[C@]12CC[C@@H](C)[C@H](C)C1C1=CCC3[C@@]4(C)Cc5cc6ccccc6nc5C(C)(C)C4CC[C@@]3(C)[C@]1(C)CC2` (some centres unmarked) [Compound 4e, N-[ursa-12-en-(2,3)-quinoline-28-oyl]-pentanehydrazide], the IC50 in test [1], in test [2] and in test [3] was greater than 50 µM each time.
For the molecule `CCCCc1nnc([C@]23CC[C@@H](C)[C@H](C)C2C2=CCC4[C@@]5(C)Cc6cc7cc(Cl)ccc7nc6C(C)(C)C5CC[C@@]4(C)[C@]2(C)CC3)o1` (some centres unmarked) [Compound 5h, N-[5′-chloro-ursa-12-en-(2,3)-quinoline-28-oyl]-5-butyl-1,3,4-oxadiazole], the half-maximal inhibitory concentration (IC50) in test [1], in test [2] and in test [3] was greater than 50 µM each time.
For the molecule `COc1ccc2nc3c(cc2c1)CC1(C)C(CCC2(C)C1CC=C1C4C(C)C(C)CCC4(c4nnc(C)o4)CCC12C)C3(C)C` (centres unmarked) [Compound 5b, N-[5′-methoxy-ursa-12-en-(2,3)-quinoline-28-oyl]-5-methyl-1,3,4-oxadiazole], the IC50 in test [1] is 12.25 ± 0.12 µM; in test [4], greater than 50 µM; in test [2], 16.8 ± 0.34 µM; in test [3], greater than 50 µM. The molecule further registered a Selectivity in test [4] of 5.6.
For `COc1ccc2nc3c(cc2c1)CC1(C)C(CCC2(C)C1CC=C1C4C(C)C(C)CCC4(c4nnc(C)s4)CCC12C)C3(C)C` (centres unmarked) [Compound 6b], the IC50 was 15.7 ± 2.01 µM in test [1], greater than 50 µM in test [4], 12.8 ± 1.32 µM in test [2] and greater than 50 µM in test [3]. Besides, the Selectivity in test [4] is listed as 8.5.
Regarding `Cc1nnc([C@]23CC[C@@H](C)[C@H](C)C2C2=CCC4[C@@]5(C)Cc6cc7cc(F)ccc7nc6C(C)(C)C5CC[C@@]4(C)[C@]2(C)CC3)o1` (some centres unmarked) [Compound 5c, N-[5′-fluoro-ursa-12-en-(2,3)-quinoline-28-oyl]-5-methyl-1,3,4-oxadiazole], the IC50 in test [1] is 13.2 ± 0.58 µM; in test [4], greater than 50 µM; in test [2] it was 33.8 ± 0.95 µM; in test [3] it was greater than 50 µM. In addition, in test [4], the Selectivity was found to be 3.6.
For `CCCCc1nnc([C@]23CC[C@@H](C)[C@H](C)C2C2=CCC4[C@@]5(C)Cc6cc7cc(F)ccc7nc6C(C)(C)C5CC[C@@]4(C)[C@]2(C)CC3)o1` (some centres unmarked) [Compound 5g, N-[5′-fluoro-ursa-12-en-(2,3)-quinoline-28-oyl]-5-butyl-1,3,4-oxadiazole], the IC50 in test [1], in test [2] and in test [3] was greater than 50 µM in each case.
`CCCCc1nnc([C@]23CC[C@@H](C)[C@H](C)C2C2=CCC4[C@@]5(C)Cc6cc7ccccc7nc6C(C)(C)C5CC[C@@]4(C)[C@]2(C)CC3)o1` (some centres unmarked) [Compound 5e, N-2-[ursa-12-en-(2,3)-quinoline-28-oyl]-5-butyl-1,3,4-oxadiazole]: the IC50 in test [1], in test [2] and in test [3] was greater than 50 µM in each case.
For the molecule `C[C@@H]1CC[C@]2(C(=O)O)CC[C@]3(C)C(=CCC4[C@@]5(C)CCC(=O)C(C)(C)C5CC[C@]43C)C2[C@H]1C` (some centres unmarked) [Compound 2, 3-oxo-ursolic acid], the IC50 in test [1], in test [2] and in test [3] was greater than 50 µM in each case.
